Measured values as given in patent publication US6348614B1 (priority 1996, dated 2002).
Where two headings read alike, the source gives them in different places.

Legend:
[1] = system: Phytophthora infestans; type: in vivo; details: Tomato, 500 ppm, 7 days after inoculation
[2] = system: Pseudoperonospora cubensis; experiment: Downy mildew in cucumber (Table 8); details: 500 ppm, 7 days after inoculation
Protocol: (§1) Cucumber plants (cv,Dlila) and melon plants (cv.Ein Dor) were raised from seeds in 0.2 liter pots in the greenhouse. At 3 weeks after sowing when had 3 true leaves they were inoculated with sporangial suspension (1000 sporangia/ml) of P.cubensis (resistant to metalaxyl) and placed in 100% relative humidity in the dark for 20 hr. They were then place in a 20° C. growth cabinet for 7 days and assessed for disease development. Percentage leaf area covered with disease symptoms was evaluated and control efficacy was calculated relative to control inoculated plants.

[3] = system: Plasmopara viticola; experiment: Downy mildew in grapes (Table 9); type: in vivo; details: 500 ppm, 10 days after inoculation
Protocol: Two days after spraying plants were inoculated with sporangial suspension of P.viticola ([…]) onto their lower leaf surface and placed in 100% relative humidity for 20 hr. The plants were then placed in a growth cabinets 20° C. for 10 days. Disease development was assessed according to the abaxial leaf surfaces area covered with fungal sporulation.

[4] = system: Venturia inaequalis; details: 0.03 M; cited from earlier work
[5] = system: Erysiphe graminis tritici; experiment: Powdery mildew in wheat, additional examples (Table 6); type: in vivo; details: 500 ppm, 7 days after inoculation
Protocol: Wheat plants (cv.Shafir) were raised from seed in the greenhouse, 30 plants per 0.2 liter pot. When the first leaf was fully developed plants were sprayed with the test solutions and placed in a 20° C. growth cabinet. Two days after spraying plants were dusted with conidia of E. graminis tritict so that about 100 spores were settled on 1 cm^2 of leaf area (both surfaces). […] Control efficacy was calculated relative to number of colonies developed on the control-inoculated untreated plants.

[6] = system: Pseudoperonospora cubensis; experiment: Downy mildew in melon (Table 7); details: 500 ppm, 7 days after inoculation
Protocol: as §1

[7] = system: Phytophthora infestans; type: in vivo
[8] = system: Phytophthora infestans; type: in vivo; remark: listed apart in the source
[9] = system: Erysiphe graminis hordei; experiment: Powdery mildew in barley (Table 5)
From the text: For the following experiments we have used 10-days old potted wheat plants (Triticum asetivum cultivar Atir) and barley plants (Hhordeum vulgaris cultivar Amidon).
Plants were sprayed with the test compounds and two days lated were inoculated with the powdery mildew fungal pathogens. Wheat was inoculated with Erysiphe granims tritici. Barley was inoculated with the powdery Erysiphe granims hordei.
Inoculation was done by shaking infected donor plants harboring abundant conidia over the treated plants. Untreated plants were also inoculated as controls. Inoculated plants were placed in a growth chamber at 20-22C with 1 rhr photoperioed and 50-60% RH. At 9-10 days after inoculation disease intesity was visually assessed by estimating the percentage leaf area occupied by fungal colonies.
Control efficacy of the disease achieved by the sprayed test compound was calculated relative to the amount of disease seen in the control.

[10] = Barley 17.9.96, dose 500 (unit not given)
[11] = Barley 17.9.96, dose 2000 (unit not given)

Cc1ccc(C(=O)NC(C)CC(=O)OCCC(Cl)(Cl)Cl)cc1 (stereo not drawn) [compound 36, D,L N-4-methylbenzoyl-3-aminobutyric acid 2-(trichloromethyl)ethyl ester]
Control efficacy (%) 7d [1]: 81%
Control efficacy (%) 7d [2]: 82%

CCCCCCCOC(=O)CC(C)NC(=O)c1ccc(Cl)cc1 (stereo not drawn) [compound 30, D,L N-4-cholrobenzoyl-3-aminobutyric acid heptyl ester]
Control efficacy % 10d [3]: 91%

CCCCCCCOC(=O)CC(C)NC(=O)c1c(F)cccc1F (stereo not drawn) [compound 14, D,L N-2,6-difluorobenzoyl-3-aminobutyric acid heptyl ester]
Control efficacy % 10d [3]: 100%

CC(C)C[C@@H](N)C(=O)O [D-leucine, D-and DL leucine]
reduction of scab in apple [4]: reduce scab

CCCCCCCOC(=O)CC(C)NS(=O)(=O)c1ccc(Cl)cc1 (stereo not drawn) [compound 40, D,L N-4-chlorobenzenesulfonyl-3-aminobutyric acid heptyl ester]
Control efficacy (%) 7d [2]: 82%

CC(CC(=O)OC1CCCCC1)NC(=O)c1ccccc1 (stereo not drawn) [compound 38, D,L N-benzoyl-3-aminobutyric acid cyclohexyl ester]
Control efficacy (%) 7d [5]: 100%
Control efficacy (%) 7d [1]: 78%
Control efficacy (%) 7d [2]: 80%

Cc1ccc(S(=O)(=O)NC(C)CC(=O)OCCBr)cc1 (stereo not drawn) [compound 33, D,L N-4-methylbenzenesulfonyl-3-aminobutyric acid 2-bromoethyl ester]
Control efficacy % 7 days [6]: 75%

CCCC(C)COC(=O)CC(C)NC(=O)c1c(Cl)cccc1Cl (stereo not drawn) [compound 25, D,L N-2,6-dichlorobenzoyl-3-aminobutyric acid 2-methylpentyl ester]
Control efficacy % 7 days [6]: 80%
Control efficacy % 10d [3]: 100%

CCCOC(=O)CC(C)NS(=O)(=O)c1ccc(Cl)cc1 (stereo not drawn) [compound 35, D,L N-4-chlorobenzenesulfonyl-3-aminobutyric acid propyl ester]
Control efficacy (%) 7d [5]: 81%
Control efficacy (%) 7d [1]: 81%
Control efficacy (%) 7d [2]: 77%

CCCCC(C)OC(=O)CC(C)NC(=O)c1cc(C)cc(C)c1 (stereo not drawn) [compound 23, D,L N-3,5-dimethylbezoyl-3-aminobutyric acid 1-methylpentyl ester]
Control efficacy % 7 days [6]: 73%
Control efficacy % 10d [3]: 100%

CCCCC(C)OC(=O)CC(C)NS(=O)(=O)c1ccc(C)cc1 (stereo not drawn) [compound 16, D,L N-4-methylbenzenesulfonyl-3-aminobutyric acid i-methylpentyl ester]
Control efficacy (%) 7d [5]: 83%
Control efficacy % 10d [3]: 100%

CC(CC(=O)OCCC(Cl)(Cl)Cl)NS(=O)(=O)c1ccccc1 (stereo not drawn) [compound 19, D,L N-benzenesulfonyl-3-aminobutyric acid 2-(trichloromethyl)ethyl ester]
Control efficacy % 7 days [6]: 83%
Control efficacy % 10d [3]: 94%

CC(CC(=O)Nc1ccccc1)NS(=O)(=O)c1ccccc1 (racemic) [Example 2, D,L-N-benzensulfonyl-3-aminobutyranilide]
Control Efficacy % ([7]; Potato, 14.8.96, 2000 ppm): 74%
Control Efficacy % ([7]; Potato, 17.7.096, 500 ppm): 45%
Control Efficacy % ([7]; Potato, 17.7.096, 2000 ppm): 81%
Control Efficacy % ([7]; Potato, 26.7.96, 500 ppm): 42%
Control Efficacy % ([7]; Potato, 26.7.96, 2000 ppm): 68%
Control Efficacy % ([8]; Tomato, 12.7.96, 500 ppm): 85%
Control Efficacy % ([8]; Tomato, 12.7.96, 2000 ppm): 85%
Control Efficacy % ([8]; Tomato, 14.8/96, 2000 ppm): 83%

D,L-N-β-methyl benzoyl-3-aminobutyric acid n-octyl ester [Example 3]
Control Efficacy % ([7]; Potato, 14.8.96, 2000 ppm): 88%
Control Efficacy % ([7]; Potato, 17.7.096, 500 ppm): 70%
Control Efficacy % ([7]; Potato, 17.7.096, 2000 ppm): 81%
Control Efficacy % ([7]; Potato, 26.7.96, 500 ppm): 85%
Control Efficacy % ([7]; Potato, 26.7.96, 2000 ppm): 92%
Control Efficacy % ([8]; Tomato, 12.7.96, 2000 ppm): 70%
Control Efficacy % ([8]; Tomato, 14.8/96, 2000 ppm): 93%

C[C@@H](N)C(=O)O [D-alaninie]
reduction of scab in apple [4]: reduce scab

CCCCC(C)OC(=O)CC(C)NC(=O)c1ccc(Cl)cc1 (stereo not drawn) [compound 18, D,L N-4-cholrobenzoyl-3-aminobutyric acid 1-methylpentyl ester]
Control efficacy % 7 days [6]: 87%
Control efficacy % 10d [3]: 91%

CC(CC(=O)OCCCl)NC(=O)c1ccc(Cl)cc1 (racemic) [Example 6, D,L-N-4-chlorobenzoyl-3-aminobutyric acid 2-chloro-ethyl ester]
Control Efficacy % [9, 10]: 62%
Control Efficacy % [9, 11]: 75%
Control Efficacy % ([7]; Potato, 14.8.96, 2000 ppm): 88%
Control Efficacy % ([7]; Potato, 17.7.096, 500 ppm): 75%
Control Efficacy % ([7]; Potato, 17.7.096, 2000 ppm): 50%
Control Efficacy % ([8]; Tomato, 12.7.96, 500 ppm): 76%
Control Efficacy % ([8]; Tomato, 12.7.96, 2000 ppm): 79%
Control Efficacy % ([8]; Tomato, 14.8/96, 2000 ppm): 67%

CCCCCCCOC(=O)CC(C)NC(=O)c1c(Cl)cccc1Cl (stereo not drawn) [compound 24, D,L N-2,6-dichlorobenzoyl-3-aminobutyric acid heptyl ester]
Control efficacy % 10d [3]: 100%

CC(CC(=O)OCCC(Cl)(Cl)Cl)NC(=O)c1ccccc1 (stereo not drawn) [compound 29, D,L N-benzoyl-3-aminobutyric acid 2-(trichloromethyl)ethyl ester]
Control efficacy % 7 days [6]: 70%
Control efficacy % 10d [3]: 91%

Cc1ccc(C(=O)NC(C)CC(=O)OC2CCCCC2)cc1 (stereo not drawn) [compound 37, D,L N-4-methylbenzoyl-3-aminobutyric acid cyclohexyl ester]
Control efficacy (%) 7d [1]: 78%
Control efficacy (%) 7d [2]: 75%

Cc1cc(C)cc(C(=O)NC(C)CC(=O)OCCCl)c1 (stereo not drawn) [compound 27, D,L N-3,5-dimethylbezoyl-3-aminobutyric acid 2-chloroethyl ester]
Control efficacy % 7 days [6]: 73%
Control efficacy % 10d [3]: 97%

CC(CC(=O)OCCCc1ccccc1)NS(=O)(=O)c1ccccc1 (stereo not drawn) [compound 51, D,L N-benzensulphonyl-3-aminobutyric acid 3-phenylpropyl ester]
Control efficacy % 7 days [6]: 87%
Control efficacy % 10d [3]: 97%

Cc1ccc(C(=O)NC(C)CC(=O)OCCCc2ccccc2)cc1 (stereo not drawn) [compound 26, D,L N-4-methylbenzoyl-3-aminobutyric acid 3-phenylpropyl ester]
Control efficacy % 10d [3]: 99%

CC(CC(=O)OC1CCCCC1)NS(=O)(=O)c1ccccc1 (stereo not drawn) [compound 39, D,L N-benzenesulfonyl-3-aminobutyric acid cyclohexyl ester]
Control efficacy (%) 7d [1]: 75%
Control efficacy (%) 7d [2]: 70%

CCCCCCCOC(=O)CC(C)NS(=O)(=O)c1ccc(C)cc1 (stereo not drawn) [compound 34, D,L N-4-methylbenzenesulfonyl-3-aminobutyric acid heptyl ester]
Control efficacy % 7 days [6]: 70%

CC(CC(=O)NCc1ccccc1)NS(=O)(=O)c1ccccc1 (racemic) [Example 1, D,L-N-benzenesulfonyl-3-amino N-benzyl butyramide]
Control Efficacy % [9, 10]: 25%
Control Efficacy % [9, 11]: 75%
Control Efficacy % ([7]; Potato, 14.8.96, 2000 ppm): 72%
Control Efficacy % ([7]; Potato, 17.7.096, 500 ppm): 57%
Control Efficacy % ([7]; Potato, 17.7.096, 2000 ppm): 77%
Control Efficacy % ([7]; Potato, 26.7.96, 500 ppm): 49%
Control Efficacy % ([7]; Potato, 26.7.96, 2000 ppm): 79%
Control Efficacy % ([8]; Tomato, 12.7.96, 500 ppm): 82%
Control Efficacy % ([8]; Tomato, 12.7.96, 2000 ppm): 97%
Control Efficacy % ([8]; Tomato, 14.8/96, 2000 ppm): 90%

COc1ccc(C(=O)NC(C)CC(=O)OCCCl)cc1 (stereo not drawn) [compound 28, D,L N-4-methoxybenzoyl-3-aminobutyric acid 2-chloroethyl ester]
Control efficacy % 10d [3]: 91%

CC(C)CC(N)C(=O)O (stereo not drawn) [DL leucine]
reduction of scab in apple [4]: reduce scab

CCCCC(C)OC(=O)CC(C)NC(=O)c1ccccc1NC (stereo not drawn) [compound 52, D,L N-2-methylaminobenzoyl-3-aminobutyric acid 1-methylpentyl ester]
Control efficacy (%) 7d [1]: 75%
Control efficacy (%) 7d [2]: 97%

CCCCCCCOC(=O)CC(C)NC(=O)c1ccc(C(C)(C)C)cc1 (stereo not drawn) [compound 15, D,L N-4-tertbutylbenzoyl-3-aminobutyric acid heptyl ester]
Control efficacy (%) 7d [5]: 74%
Control efficacy % 7 days [6]: 97%
Control efficacy % 10d [3]: 97%

CC(CC(=O)OCCCc1ccccc1)NS(=O)(=O)c1ccccc1 (stereo not drawn) [compound 17, D,L N-benzenesulfonyl-3-aminobutyric acid 3-phenylpropyl ester]
Control efficacy % 7 days [6]: 87%
Control efficacy % 10d [3]: 97%

CCC(N)C(=O)O (racemic) [DL-α-aminobutyric acid]
reduction of scab in apple [4]: reduce scab

CCC(C)OC(=O)CC(C)NS(=O)(=O)c1ccc(C)cc1 (stereo not drawn) [compound 20, D,L N-4-methylbenzenesulfonyl-3-aminobutyric 1-methylpropyll ester]
Control efficacy % 10d [3]: 100%

CCCCCCCOC(=O)CC(C)NC(=O)c1ccccc1C (stereo not drawn) [compound 32, D,L N-2-methylbezoyl-3-aminobutyric acid heptyl ester]
Control efficacy (%) 7d [5]: 83%
Control efficacy % 7 days [6]: 77%

COCC(C)OC(=O)CC(C)NS(=O)(=O)c1ccccc1 (stereo not drawn) [compound 31, D,L N-benzenesulfonyl-3-aminobutyric acid 1-methyl-2-methoxyethyl ester]
Control efficacy % 10d [3]: 82%

CCCCCCCOC(=O)CC(C)NC(=O)c1cccc(C)c1 (stereo not drawn) [compound 22, D,L N-3-methylbezoyl-3-aminobutyric acid heptyl ester]
Control efficacy % 7 days [6]: 83%

CCCCCCCOC(=O)CC(C)NC(=O)c1ccc(OC)cc1 (stereo not drawn) [compound 12, D,L N-4-methoxybenzoyl-3-aminobutyric acid heptyl ester]
Control efficacy (%) 7d [5]: 85%
Control efficacy % 7 days [6]: 100%
